Legend:
[1] = molecular target: T1, PTPN2 (i.e., TC-PTP) (Homo sapiens, UniProt P17706); assay: Phosphatase activity assay (DiFMUP substrate), PTPN2; assay type: biochemical; settings: compounds binned ≤1 uM or >1 uM
T1 sequence (P17706 1-415): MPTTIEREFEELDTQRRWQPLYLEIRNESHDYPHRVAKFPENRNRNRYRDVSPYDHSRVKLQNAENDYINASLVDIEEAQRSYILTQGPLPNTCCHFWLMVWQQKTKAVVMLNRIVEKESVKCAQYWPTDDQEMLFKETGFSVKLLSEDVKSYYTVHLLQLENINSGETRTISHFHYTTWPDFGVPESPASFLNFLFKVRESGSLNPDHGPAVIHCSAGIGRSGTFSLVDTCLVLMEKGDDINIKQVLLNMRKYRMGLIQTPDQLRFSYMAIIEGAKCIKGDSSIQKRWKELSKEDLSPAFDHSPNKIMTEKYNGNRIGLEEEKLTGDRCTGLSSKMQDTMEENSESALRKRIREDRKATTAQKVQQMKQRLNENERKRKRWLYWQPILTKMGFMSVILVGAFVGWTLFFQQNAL
Method in brief: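 First, serially diluted inhibitor is mixed about 2 minutes with enzyme in pH 7.5 HEPES/NaCl/EDTA/DTT/Tween-20 buffer. Next, DiFMUP is added at the enzyme's Km, approximately 45 μM for PTPN2. Finally, DiFMU appearance is read continuously at room temperature and rates are fitted for IC50.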

[2] = molecular target: T2, PTPN1 (i.e., PTP1B) (Homo sapiens, UniProt P18031); assay: Phosphatase activity assay (DiFMUP substrate), PTP1B; assay type: biochemical; settings: compounds binned ≤1 uM or >1 uM
T2 sequence (P18031 1-435): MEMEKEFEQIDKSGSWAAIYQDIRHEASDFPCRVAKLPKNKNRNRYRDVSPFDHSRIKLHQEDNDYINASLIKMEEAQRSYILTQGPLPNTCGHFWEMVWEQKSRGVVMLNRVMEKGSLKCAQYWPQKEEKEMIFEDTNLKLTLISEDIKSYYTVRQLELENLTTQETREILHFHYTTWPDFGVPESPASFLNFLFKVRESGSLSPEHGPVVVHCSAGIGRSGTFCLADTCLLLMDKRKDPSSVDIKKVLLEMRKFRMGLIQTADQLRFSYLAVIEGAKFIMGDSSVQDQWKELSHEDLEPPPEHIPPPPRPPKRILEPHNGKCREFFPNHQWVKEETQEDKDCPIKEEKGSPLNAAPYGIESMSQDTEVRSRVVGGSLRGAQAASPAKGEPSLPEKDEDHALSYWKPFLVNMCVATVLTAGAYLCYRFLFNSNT
Method in brief: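 Read-out is continuous fluorescence of DiFMU (360 nm excitation, 450 nm emission) over about 15-30 minutes, with DiFMUP substrate at the enzyme's independently determined Km (PTPN2 approx. 45 μM final). Buffer: 50 mM HEPES pH 7.5, 150 mM NaCl, 0.5 mM EDTA, 1 mM DTT, 0.001% Tween-20, room temperature; initial rates versus 10-point dilution fitted for IC50, at least duplicate.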

SMILES | IC50 [1] [µM] | IC50 [2] [µM]
N#C[C@H]1CC[C@H](n2cnc(-c3ccc(O)c(N4CC(=O)NS4(=O)=O)c3F)c2)CC1 [Compound 250, (1r,4r)-4-(4-(3-(1,1-dioxido-4-oxo-1,2,5-thiadiazolidin-2-yl)-2-fluoro-4-hydroxyphenyl)-1H-imidazol-1-yl)cyclohexane-1-carbonitrile] | > 1 | ≤ 1
N#Cc1cc(Cn2cc(-c3ccc(O)c(N4CC(=O)NS4(=O)=O)c3F)cn2)ccc1F [Compound 169, 5-((4-(3-(1,1-dioxido-4-oxo-1,2,5-thiadiazolidin-2-yl)-2-fluoro-4-hydroxyphenyl)-1H-pyrazol-1-yl)methyl)-2-fluorobenzonitrile] | ≤ 1 | ≤ 1
CN(C)C(=O)n1cc(-c2ccc(O)c(N3CC(=O)NS3(=O)=O)c2F)cn1 [Compound 532, 4-(3-(1,1-dioxido-4-oxo-1,2,5-thiadiazolidin-2-yl)-2-fluoro-4-hydroxyphenyl)-N,N-dimethyl-1H-pyrazole-1-carboxamide] | ≤ 1 | ≤ 1
O=C1CN(c2c(O)ccc(-c3cnn4ccccc34)c2F)S(=O)(=O)N1 [Compound 195, 5-(2-fluoro-6-hydroxy-3-(pyrazolo[1,5-a]pyridin-3-yl)phenyl)-1,2,5-thiadiazolidin-3-one 1,1-dioxide] | ≤ 1 | ≤ 1
CC1CC=C(c2ccc(O)c(N3CC(=O)NS3(=O)=O)c2F)CN1 (stereo not shown) [Compound 470, 5-(2-fluoro-6-hydroxy-3-(6-methyl-1,2,5,6-tetrahydropyridin-3-yl)phenyl)-1,2,5-thiadiazolidin-3-one 1,1-dioxide] | ≤ 1 | ≤ 1
Nc1nc2c(-c3ccc(O)c(N4CC(=O)NS4(=O)=O)c3F)ccc(F)c2s1 [Compound 151, 5-(3-(2-amino-7-fluorobenzo[d]thiazol-4-yl)-2-fluoro-6-hydroxyphenyl)-1,2,5-thiadiazolidin-3-one 1,1-dioxide] | > 1 | ≤ 1
N#C[C@H]1CC[C@@H](n2cnc(-c3ccc(O)c(N4CC(=O)NS4(=O)=O)c3F)c2)CC1 [Compound 357, (1s,4s)-4-(4-(3-(1,1-dioxido-4-oxo-1,2,5-thiadiazolidin-2-yl)-2-fluoro-4-hydroxyphenyl)-1H-imidazol-1-yl)cyclohexane-1-carbonitrile] | ≤ 1 | ≤ 1
O=C1CN(c2c(O)ccc(-c3cn(C4CC4)cn3)c2F)S(=O)(=O)N1 [Compound 176, 5-(3-(1-cyclopropyl-1H-imidazol-4-yl)-2-fluoro-6-hydroxyphenyl)-1,2,5-thiadiazolidin-3-one 1,1-dioxide] | ≤ 1 | ≤ 1
O=C1CN(c2c(O)ccc(-c3cnn(CC4CC4)c3)c2F)S(=O)(=O)N1 [Compound 131, 5-(3-(1-(cyclopropylmethyl)-1H-pyrazol-4-yl)-2-fluoro-6-hydroxyphenyl)-1,2,5-thiadiazolidin-3-one 1,1-dioxide] | ≤ 1 | ≤ 1
N#Cc1ccc(Cn2cc(-c3ccc(O)c(N4CC(=O)NS4(=O)=O)c3F)cn2)cc1F [Compound 157, 4-((4-(3-(1,1-dioxido-4-oxo-1,2,5-thiadiazolidin-2-yl)-2-fluoro-4-hydroxyphenyl)-1H-pyrazol-1-yl)methyl)-2-fluorobenzonitrile] | ≤ 1 | ≤ 1
N#Cc1ccc(-n2cnc(-c3ccc(O)c(N4CC(=O)NS4(=O)=O)c3F)c2)cc1F [Compound 287, 4-(4-(3-(1,1-dioxido-4-oxo-1,2,5-thiadiazolidin-2-yl)-2-fluoro-4-hydroxyphenyl)-1H-imidazol-1-yl)-2-fluorobenzonitrile] | ≤ 1 | ≤ 1
CN(C)c1cc(-c2ccc(O)c(N3CC(=O)NS3(=O)=O)c2F)[nH]n1 [Compound 300, 5-(3-(3-(dimethylamino)-1H-pyrazol-5-yl)-2-fluoro-6-hydroxyphenyl)-1,2,5-thiadiazolidin-3-one 1,1-dioxide] | ≤ 1 | ≤ 1
O=C1C=C(c2c(O)ccc(-c3cn(CC4CCCCC4)cn3)c2F)S(=O)(=O)N1 [Compound 277, 5-(3-(1-(cyclohexylmethyl)-1H-imidazol-4-yl)-2-fluoro-6-hydroxyphenyl)isothiazol-3(2H)-one 1,1-dioxide] | ≤ 1 | ≤ 1
CCC1C=C(c2ccc(O)c(N3CC(=O)NS3(=O)=O)c2F)CN1 (stereo not shown) [Compound 493, 5-(3-(5-ethyl-2,5-dihydro-1H-pyrrol-3-yl)-2-fluoro-6-hydroxyphenyl)-1,2,5-thiadiazolidin-3-one 1,1-dioxide] | ≤ 1 | ≤ 1

Next, values leading:

IC50 [1] [µM] | IC50 [2] [µM] | SMILES
≤ 1 | ≤ 1 | O=C1CN(c2c(O)ccc(-c3cc(C4CCOC4)n[nH]3)c2F)S(=O)(=O)N1 (stereo not shown) [Compound 326, 5-(2-fluoro-6-hydroxy-3-(3-(tetrahydrofuran-3-yl)-1H-pyrazol-5-yl)phenyl)-1,2,5-thiadiazolidin-3-one 1,1-dioxide]
≤ 1 | ≤ 1 | CC(C)N1CC=C(c2ccc(O)c(N3CC(=O)NS3(=O)=O)c2F)C1 [Compound 461, 5-(2-fluoro-6-hydroxy-3-(1-isopropyl-2,5-dihydro-1H-pyrrol-3-yl)phenyl)-1,2,5-thiadiazolidin-3-one 1,1-dioxide]
≤ 1 | ≤ 1 | O=C1CN(c2c(O)ccc(-c3cnn(CC4(Cl)CCC4)c3)c2F)S(=O)(=O)N1 [Compound 387, 5-(3-(1-((1-chlorocyclobutyl)methyl)-1H-pyrazol-4-yl)-2-fluoro-6-hydroxyphenyl)-1,2,5-thiadiazolidin-3-one 1,1-dioxide]
≤ 1 | ≤ 1 | O=C1CN(c2c(O)ccc(-c3cnn(CC4(O)CCC4)c3)c2F)S(=O)(=O)N1 [Compound 307, 5-(2-fluoro-6-hydroxy-3-(1-((1-hydroxycyclobutyl)methyl)-1H-pyrazol-4-yl)phenyl)-1,2,5-thiadiazolidin-3-one 1,1-dioxide]
≤ 1 | ≤ 1 | CN1CC2(CCC(n3cc(-c4ccc(O)c(N5CC(=O)NS5(=O)=O)c4F)cn3)CC2)C1 [Compound 271, 5-(2-fluoro-6-hydroxy-3-(1-(2-methyl-2-azaspiro[3.5]nonan-7-yl)-1H-pyrazol-4-yl)phenyl)-1,2,5-thiadiazolidin-3-one 1,1-dioxide]
≤ 1 | ≤ 1 | O=C1CN(c2c(O)ccc(-c3cn(C4CC4)nc3F)c2F)S(=O)(=O)N1 [Compound 440, 5-(3-(1-cyclopropyl-3-fluoro-1H-pyrazol-4-yl)-2-fluoro-6-hydroxyphenyl)-1,2,5-thiadiazolidin-3-one 1,1-dioxide]
≤ 1 | ≤ 1 | O=C1CN(c2c(O)ccc(C3=CCN(CC4CC4)C3)c2F)S(=O)(=O)N1 [Compound 496, 5-(3-(1-(cyclopropylmethyl)-2,5-dihydro-1H-pyrrol-3-yl)-2-fluoro-6-hydroxyphenyl)-1,2,5-thiadiazolidin-3-one 1,1-dioxide]
≤ 1 | ≤ 1 | O=C1CN(c2c(O)ccc(-c3ccnc(N4CCCC4)c3)c2F)S(=O)(=O)N1 [Compound 162, 5-(2-fluoro-6-hydroxy-3-(2-(pyrrolidin-1-yl)pyridin-4-yl)phenyl)-1,2,5-thiadiazolidin-3-one 1,1-dioxide]
≤ 1 | ≤ 1 | CO[C@H]1CC[C@H](n2cc(-c3ccc(O)c(N4CC(=O)NS4(=O)=O)c3F)cn2)CC1 [Compound 426, 5-(2-fluoro-6-hydroxy-3-(1-((1r,4r)-4-methoxycyclohexyl)-1H-pyrazol-4-yl)phenyl)-1,2,5-thiadiazolidin-3-one 1,1-dioxide]
≤ 1 | ≤ 1 | CC#Cc1cc(-c2ccc(O)c(N3CC(=O)NS3(=O)=O)c2F)[nH]n1 [Compound 354, 5-(2-fluoro-6-hydroxy-3-(3-(prop-1-yn-1-yl)-1H-pyrazol-5-yl)phenyl)-1,2,5-thiadiazolidin-3-one 1,1-dioxide]
≤ 1 | ≤ 1 | O=C1CN(c2c(O)ccc(-c3cc(-c4ccccc4)no3)c2F)S(=O)(=O)N1 [Compound 401, 5-(2-fluoro-6-hydroxy-3-(3-phenylisoxazol-5-yl)phenyl)-1,2,5-thiadiazolidin-3-one 1,1-dioxide]
≤ 1 | ≤ 1 | O=C1CN(c2c(O)ccc(-c3cnn(CCO)c3)c2F)S(=O)(=O)N1 [Compound 140, 5-(2-fluoro-6-hydroxy-3-(1-(2-hydroxyethyl)-1H-pyrazol-4-yl)phenyl)-1,2,5-thiadiazolidin-3-one 1,1-dioxide]
